Assay results reported in patent US8313934B2, “Reduction of the toxic effect of impurities from raw materials by extractive fermentation” (LS9, Inc., priority 2007, dated 2012).

How the values were obtained:
[1] = test system: LS9-ID1; test: Effect of common toxins on growth of the production strain (shake flasks, OD); format: cell-based, E. coli; details: for % Inhibition for LS9-ID1: toxin added at the reported MIC, growth by OD vs control without toxin
Method: A culture of a genetically engineered strain of E. coli, LS9-ID1, was transferred from a frozen stock and incubated in Luria-Bertani broth for approximately three hours. The culture was transferred to a defined mineral medium commonly used for E. coli, M9, buffered and supplemented with thiamine and trace minerals. The culture was further incubated and used to inoculate the same fermentation media with 50 g/L of carbohydrate (glucose, fructose, some pentoses).
The toxicity towards microbial strains of many of the compounds in hemicelluloses and cellulose hydrolysates has been examined individually. In the case of E. coli, the toxicity is related to the hydrophobicity of the toxin. The effects of several of these compounds on the growth of certain microbial strains were evaluated. The tests were done in shake flasks by following a protocol similar to that described in example 1, above, but without the induction and the addition of alcohols.
Other concentrations were also tested to determine the range where the effect was observed. The inhibition level was reported as the ratio between growth in the absence of the toxin (control) minus growth in the presence of the toxin and growth in the control.

[2] = test system: E. coli; details: minimal inhibitory concentration that completely inhibits growth, as reported in the literature; cited from earlier work
[3] = test system: LS9-ID1; test: Extractive fermentation with toxin, with or without hydrophobic solvent: cell growth (OD600); format: cell-based, E. coli; details: for % Growth With C1:C12: methyl laureate as solvent; for % Growth With Hexadecane: hexadecane as solvent; for % Growth With Eicosadecene: eicosadecene as solvent; for % Growth With Biodiesel: commercial biodiesel as solvent
Method: Two sets of duplicate flasks were prepared with different concentrations of the toxin to be tested. One set served as the control, which included the toxin without the extractant, the hydrophobic solvent. In the second set, the extractant was added in a ratio of 1 volume of solvent per 3 volumes of fermentation broth. The flasks were then inoculated and incubated at 37° C. in agitated shakers. When the OD 600 reached a value of 1, the cultures were induced by the addition of 1 mM IPTG and 20 ml/L methanol. Cell growth and production of fatty acids methyl esters (FAME) was measured at 24 hours. In cultures without hydrophobic solvents (control), OD was measured directly in the fermentation broth. […] The OD was measured in this suspension.
(§1) To analyze FAME production, 0.5 ml of broth was well mixed with 0.5 ml of ethylacetate. The organic phase was analyzed by gas chromatography. In the samples with solvents, additional dilutions were applied. All the toxins were tested with ethyl oleate (C2:C18 ester, or C2:C18) as a solvent representative of a biodiesel. Growth and FAME production are reported as percentage of the control condition (no toxin added). Each result is the average of duplicate experiments.
The solvents methyl laureate (C1:C12 ester, or C1:C12), hexadecane (an alkane), eicosadecene (an alkene) and commercial biodiesel were tested.

[4] = test system: LS9-ID1; test: Extractive fermentation with toxin, with or without hydrophobic solvent: FAME production (GC); format: cell-based, E. coli; details: 24 h, % of no-toxin control; for % FAME titer With C2:C18: ethyl oleate 1:3
Method: The production of fatty acid methyl and ethyl esters was analyzed by gas chromatography with flame ionization detector (GC-FID). The samples from fermentation broth were extracted with ethyl acetate in a ratio of 1:1 vol/vol. After strong vortexing, the samples were centrifuged and the organic phase was analyzed by gas chromatography (GC). The analysis conditions were as follows: instrument: Trace GC Ultra, Thermo Electron Corporation with Flame ionization detector (FID) detector; column: DB-1 (1% diphenyl siloxane; 99% dimethyl siloxane) CO1 UFM 1/0.1/5 01 DET from Thermo Electron Corporation, phase pH 5, FT: 0.4 μm, length 5 m, id: 0.1 mm; inlet conditions: 250° C. splitless, 3.8 min 1/25 split method used depending upon sample concentration with split flow of 75 ml/min; carrier gas, flow rate: Helium, 3.0 ml/min; block temperature: 330° C.; oven temperature: 0.5 minute hold at 50° C.; 100° C./minute to 330° C., 0.5 minute hold at 330° C.; detector temperature: 300° C.; injection volume: 2 μL; run time/flow rate: 6.3 min/3.0 ml/min (splitless method), 3.8 min/1.5 ml/min (split 1/25 method), 3.04 min/1.2 ml/min (split 1/50 method).
To determine the ability to perform extractive fermentations using products generated by the engineered strain of E. coli, LS9-ID1, to improve the performance of the fermentation in the presence of toxins, the fermentations were performed using a protocol similar to that described in example 1, above. Two sets of duplicate flasks were prepared with different concentrations of the toxin to be tested. One set served as the control, which included the toxin without the extractant, the hydrophobic solvent. In the second set, the extractant was added in a ratio of 1 volume of solvent per 3 volumes of fermentation broth. The flasks were then inoculated and incubated at 37° C. in agitated shakers. When the OD 600 reached a value of 1, the cultures were induced by the addition of 1 mM IPTG and 20 ml/L methanol. Cell growth and production of fatty acids methyl esters (FAME) was measured at 24 hours. In cultures without hydrophobic solvents (control), OD was measured directly in the fermentation broth. In flasks with solvent there was interference in OD measurement, and to eliminate this problem, the broth was centrifuged and the cell pellet was resuspended in the same volume of distilled water. The OD was measured in this suspension.
as §1

[5] = test system: LS9-ID1; test: Solvent pretreatment of toxin-spiked media before fermentation: cell growth; format: cell-based, E. coli; details: Table 12, toxin 1.5 g/L; for % Growth With Pretreatment: media extracted with methyl laureate 1:3 vol:vol, 37° C., 60 minutes, before inoculation; for % Growth No solvent: untreated media
Text: The raw materials can be treated to remove the toxin prior to the fermentation. For this purpose it will be possible to use the bioproduct after the initial steps of purification (centrifugal separation for example) but prior to any polishing or finishing step. The sugar containing raw material can be placed in contact with the solvent in a batch or in a continuous counter current mode. After extraction, the raw material (aqueous phase) can be separated from the solvent by decantation or centrifugation.
Tests were performed similarly to that described in the above Examples. Fermentation media was prepared and spiked with the desired concentration of the toxin. Methyl laureate was used as a solvent representative of biodiesel. It was added to the fermentation media in a 1:3 vol:vol ratio. Solvent and broth were thoroughly mixed at 37° C. for 60 minutes. The aqueous layer was decanted in a separatory funnel and collected. The resulting media was then inoculated with LS9-ID1 and growth was compared against similar media containing the toxin but which had not been treated.

[6] = toxin 1.5 g/L, ethyl oleate 1:3 vol solvent:broth, 24 h, % of no-toxin control
[7] = toxin 1.5 g/L, 24 h, % of no-toxin control (Tables 3-7)
[8] = toxin 3.0 g/L, ethyl oleate 1:3, 24 h, % of no-toxin control
[9] = toxin 3.0 g/L, 24 h, % of no-toxin control (Tables 3-7)

Row | Compound | % Inhibition for LS9-ID1 [1] | Reported MIC [2] | % Growth With C1:C12 ([3]; Table 8, toxin 1.5 g/L) | % Growth No solvent ([3]; Table 8, toxin 1.5 g/L) | % Growth With Hexadecane ([3]; Table 9, toxin 1.5 g/L) | % Growth No solvent ([3]; Table 9, toxin 1.5 g/L) | % Growth With Eicosadecene ([3]; Table 10, toxin 1.5 g/L) | % Growth No solvent ([3]; Table 10, toxin 1.5 g/L) | % of Growth inhibition ([1]; toxin 1.00 g/L) | % of Growth inhibition ([1]; toxin 1.50 g/L) | % of Growth inhibition ([1]; toxin 3.00 g/L) | % Growth With Biodiesel ([3]; Table 11, toxin 1.5 g/L) | % Growth With C2:C18 [3, 6] | % Growth No solvent [3, 7] | % Growth With C2:C18 [3, 8] | % Growth No solvent [3, 9] | % FAME titer With C2:C18 ([4]; toxin 1.5 g/L) | % FAME titer No solvent ([4]; toxin 1.5 g/L) | % FAME titer With C2:C18 ([4]; toxin 3.0 g/L) | % FAME titer No solvent ([4]; toxin 3.0 g/L) | also measured
1 | Cc1ccc(O)c(O)c1 [4-Methyl catechol] | 25% | 1500 µg/mL | – | – | – | – | – | – | – | – | – | – | – | – | – | – | – | – | – | – | –
2 | O=Cc1ccc(O)cc1 [4-hydroxybenzaldehyde] | 100% | 1250 µg/mL | 33.0% | 20.2% | 53.8% | 6.2% | 11.2% | 9.6% | – | – | – | – | – | – | – | – | – | – | – | – | % Growth With C2:C18 ([3]; toxin 0.63 g/L, ethyl oleate 1:3, 24 h, % of no-toxin control): 68.0%; % Growth No solvent ([3]; toxin 0.63 g/L, 24 h, % of no-toxin control): 70.0%; % Growth With C2:C18 ([3]; toxin 1.25 g/L, ethyl oleate 1:3, 24 h, % of no-toxin control): 60.0%; % Growth No solvent ([3]; toxin 1.25 g/L, 24 h, % of no-toxin control): 45.0%; % FAME titer With C2:C18 ([4]; toxin 0.63 g/L): 72.6%; % FAME titer No solvent ([4]; toxin 0.63 g/L): 54.3%; % FAME titer With C2:C18 ([4]; toxin 1.25 g/L): 31.8%; % FAME titer No solvent ([4]; toxin 1.25 g/L): 18.1%
3 | O=Cc1ccc(CO)o1 [5-Hydroxymethylfurfural] | 100% | 4000 µg/mL | – | – | – | – | – | – | – | – | – | – | – | – | – | – | – | – | – | – | % Growth With Hexadecane ([3]; Table 9, toxin 2.0 g/L): 57.1%; % Growth No solvent ([3]; Table 9, toxin 2.0 g/L): 39.8%; % Growth With Eicosadecene ([3]; Table 10, toxin 2.0 g/L): 55.3%; % Growth No solvent ([3]; Table 10, toxin 2.0 g/L): 51.8%; % Growth With C2:C18 ([3]; toxin 4.0 g/L, ethyl oleate 1:3, 24 h, % of no-toxin control): 20.9%; % Growth No solvent ([3]; toxin 4.0 g/L, 24 h, % of no-toxin control): 4.7%; % Growth With C2:C18 ([3]; toxin 8.0 g/L, ethyl oleate 1:3, 24 h, % of no-toxin control): 9.1%; % Growth No solvent ([3]; toxin 8.0 g/L, 24 h, % of no-toxin control): 2.2%
4 | O=Cc1ccco1 [Furfural] | 100% | 3500 µg/mL | – | – | 38.5% | 17.7% | 56.7% | 33.3% | 0% | 60.0% | 18.5% | 49.7% | 71.9% | 40.0% | 53.6% | 21.5% | 72.7% | 35.5% | 43.2% | 4.5% | % Growth With C1:C12 ([3]; Table 8, toxin 3.0 g/L): 16.7%; % Growth No solvent ([3]; Table 8, toxin 3.0 g/L): 6.1%; % Growth No solvent ([3]; Table 11, toxin 1.5 g/L): 33.3%; % Growth With Pretreatment [5]: 69.6%; % Growth No solvent [5]: 33.3%
5 | COc1ccccc1O [Guaiacol] | 100% | 3000 µg/mL | 88.6% | 18.3% | 41.8% | 12.7% | 31.8% | 15.8% | 0% | 41.7% | 100% | – | 93.7% | 30.4% | 65.1% | 12.5% | 100.5% | 10.2% | 76.2% | 2.3% | % of Growth inhibition ([1]; toxin 2.00 g/L): 83.3%
6 | COc1cc(C=O)cc(OC)c1O [Syringaldehyde] | 100% | 2500 µg/mL | – | – | 40.7% | 19.5% | 48.2% | 8.8% | – | – | – | 39.2% | 41.0% | 34.4% | 14.8% | 6.6% | 94.8% | 16.2% | 92.7% | 2.0% | % Growth No solvent ([3]; Table 11, toxin 1.5 g/L): 8.8%; % Growth With Co-treatment ([5]; co-treatment): 61.2%; % Growth With Pretreatment [5]: 83.3%; % Growth No solvent [5]: 8.8%
